# Measurements reported in patent publication US12448377B2, “Heterocyclic compound” (Takeda Pharmaceutical Company Limited, priority 2019, dated 2025).
# Target: T1, human orexin type 2 receptor (Homo sapiens, UniProt O43614)
# T1 construct: expressed in transfected cells
# T1 sequence (O43614 1-444): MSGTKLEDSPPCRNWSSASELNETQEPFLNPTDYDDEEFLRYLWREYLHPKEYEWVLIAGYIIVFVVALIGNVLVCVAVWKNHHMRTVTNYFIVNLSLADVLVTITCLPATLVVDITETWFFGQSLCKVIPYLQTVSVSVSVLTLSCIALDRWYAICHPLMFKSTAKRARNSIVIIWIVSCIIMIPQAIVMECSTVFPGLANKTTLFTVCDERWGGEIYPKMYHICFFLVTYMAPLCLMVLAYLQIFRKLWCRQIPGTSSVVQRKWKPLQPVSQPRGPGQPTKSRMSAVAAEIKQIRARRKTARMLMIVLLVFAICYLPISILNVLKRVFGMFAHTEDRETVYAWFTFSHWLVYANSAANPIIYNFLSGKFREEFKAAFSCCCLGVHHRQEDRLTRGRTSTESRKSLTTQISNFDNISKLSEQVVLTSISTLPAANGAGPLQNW
# Assay: Measurement of orexin type 2 receptor agonist activity (calcium fluorescence, CHO cells forcibly expressing human OX2 receptor)
# Assay type: cell-based
# Details: compound at 3 μM, DMSO = 0%, orexin A (human) 10 nM = 100%
# Description: To obtain a cell clone stably expressing human orexin type 2 receptor, human orexin type 2 receptor cDNA was inserted into pcDNA3.1(+) plasmid vector (Invitrogen), and a plasmid DNA for expression of human orexin type 2 receptor (pcDNA3.1(+)/hOX2R) was cloned. The plasmid DNA was introduced into CHO-K1 cell by an electroporation method, and human orexin type 2 receptor-expressing clonal cells were obtained by limiting dilution method using G418 drug resistance as a selection marker.
# CHO cells forcibly expressing human OX2 receptor were seeded in each well of 384 well black transparent bottom plate (BD Falcon) at 10,000 cells/well, and cultured for one day in a 5% CO2 incubator at 37° C. After removal of the medium in the cell plate, assay buffer A containing a calcium indicator (HBSS (Thermo Fisher Scientific), 20 mM HEPES (Thermo Fisher Scientific), 0.1% BSA (Sigma-Aldrich), 2.5 μg/mL Fluo-4 AM (DOJINDO Chemical), 0.08% Pluronic F127 (DOJINDO Chemical), 1.25 mM probenecid (DOJINDO Chemical)) was added thereto at 30 μL/well. The plate was stood for 30 min in a 5% CO2 incubator at 37° C., and further stood at room temperature for 30 min. A test compound prepared by diluting with assay buffer B (HBSS, 20 mM HEPES, 0.1% BSA) was added thereto at 10 μL/well, and the fluorescence value was measured by FDSSμCELL (Hamamatsu Photonics K.K.) every one sec for 1 min, and thereafter every two sec for 1 min 40 sec. The activity (%) of the test compound was calculated assuming that variation in the fluorescence value when DMSO was added instead of the test compound was 0%, and variation in the fluorescence value when orexin A (human) (PEPTIDE INSTITUTE, INC.) was added at the final concentration of 10 nM was 100%.
row,Structure (SMILES),"OX2R agonist activity (3 μM, %)"
1,"CCc1ccc2n(c1=O)C(COC1CCC(C)CC1)C(NS(C)(=O)=O)CC2 (racemic) [Example 2, rac-N-[(3S,4R)-7-ethyl-4-({[(1s,4S)-4-methylcyclohexyl]oxy}methyl)-6-oxo-1,3,4,6-tetrahydro-2H-quinolizin-3-yl]methanesulfonamide]",94%
2,"CC1CCC(OCC2C(NS(C)(=O)=O)CCc3cccc(=O)n32)CC1 (racemic) [Example 3, rac-N-[(3S,4R)-4-({[(1s,4S)-4-methylcyclohexyl]oxy}methyl)-6-oxo-1,3,4,6-tetrahydro-2H-quinolizin-3-yl]methanesulfonamide]",89%
3,"COC1CCC(OCC2C(NS(C)(=O)=O)CCc3ccc(C)c(=O)n32)CC1 (racemic) [Example 4, N-[(3SR,4RS)-4-{[(4-methoxycyclohexyl)oxy]methyl}-7-methyl-6-oxo-1,3,4,6-tetrahydro-2H-quinolizin-3-yl]methanesulfonamide]",58%
4,"CCS(=O)(=O)NC1CCc2ccc(C)c(=O)n2C1COC1CCC(C)CC1 (racemic) [Example 7, rac-N-[(3S,4R)-7-methyl-4-({[(1s,4S)-4-methylcyclohexyl]oxy}methyl)-6-oxo-1,3,4,6-tetrahydro-2H-quinolizin-3-yl]ethanesulfonamide]",85%
5,"Cc1ccc2n(c1=O)C(COC1CCC(C)CC1)C(NS(=O)(=O)C1CC1)CC2 (racemic) [Example 8, rac-N-[(3S,4R)-7-methyl-4-({[(1s,4S)-4-methylcyclohexyl]oxy}methyl)-6-oxo-1,3,4,6-tetrahydro-2H-quinolizin-3-yl]cyclopropanesulfonamide]",80%
6,"CCC1CCC(OCC2C(NS(=O)(=O)C3CC3)CCc3ccc(C)c(=O)n32)CC1 (racemic) [Example 10, rac-N-[(3S,4R)-4-({[(1s,4S)-4-ethylcyclohexyl]oxy}methyl)-7-methyl-6-oxo-1,3,4,6-tetrahydro-2H-quinolizin-3-yl]cyclopropanesulfonamide]",97%
7,"CCC1CCC(OCC2C(NS(=O)(=O)CC)CCc3ccc(C)c(=O)n32)CC1 (racemic) [Example 11, rac-N-[(3S,4R)-4-({[(1s,4S)-4-ethylcyclohexyl]oxy}methyl)-7-methyl-6-oxo-1,3,4,6-tetrahydro-2H-quinolizin-3-yl]ethanesulfonamide]",100%
8,"Cc1ccc2n(c1=O)C(COC1CCC(C(C)C)CC1)C(NS(C)(=O)=O)CC2 (racemic) [Example 12, rac-N-[(3S,4R)-7-methyl-6-oxo-4-({[(1s,4S)-4-(propan-2-yl)cyclohexyl]oxy}methyl)-1,3,4,6-tetrahydro-2H-quinolizin-3-yl] methanesulfonamide]",96%
9,"CCS(=O)(=O)NC1CCc2ccc(C)c(=O)n2C1COC1CCC(C(C)C)CC1 (racemic) [Example 13, rac-N-[(3S,4R)-7-methyl-6-oxo-4-({[(1s,4S)-4-(propan-2-yl)cyclohexyl]oxy}methyl)-1,3,4,6-tetrahydro-2H-quinolizin-3-yl]ethanesulfonamide]",96%
10,"Cc1ccc2n(c1=O)C(COC1CCC(C(C)C)CC1)C(NS(=O)(=O)C1CC1)CC2 (racemic) [Example 14, rac-N-[(3S,4R)-7-methyl-6-oxo-4-({[(1s,4S)-4-(propan-2-yl)cyclohexyl]oxy}methyl)-1,3,4,6-tetrahydro-2H-quinolizin-3-yl]cyclopropanesulfonamide]",100%
11,"CCS(=O)(=O)NC1CCc2ccc(C)c(=O)n2C1COC1CCC(c2ccccc2)CC1 (racemic) [Example 15, rac-N-[(3S,4R)-7-methyl-6-oxo-4-({[(1s,4S)-4-phenylcyclohexyl]oxy}methyl)-1,3,4,6-tetrahydro-2H-quinolizin-3-yl]ethanesulfonamide]",96%
12,"Cc1ccc2n(c1=O)C(COC1CCC(c3ccccc3)CC1)C(NS(=O)(=O)C1CC1)CC2 (racemic) [Example 16, rac-N-[(3S,4R)-7-methyl-6-oxo-4-({[(1s,4S)-4-phenylcyclohexyl]oxy}methyl)-1,3,4,6-tetrahydro-2H-quinolizin-3-yl]cyclopropanesulfonamide]",91%
13,"Cc1ccc2n(c1=O)C(COC1CCC(C(C)(C)C)CC1)C(NS(C)(=O)=O)CC2 (racemic) [Example 17, rac-N-[(3S,4R)-4-({[(1s,4S)-4-tert-butylcyclohexyl]oxy}methyl)-7-methyl-6-oxo-1,3,4,6-tetrahydro-2H-quinolizin-3-yl]methanesulfonamide]",86%
14,"CCS(=O)(=O)NC1CCc2ccc(C)c(=O)n2C1COC1CCC(C(C)(C)C)CC1 (racemic) [Example 18, rac-N-[(3S,4R)-4-({[(1s,4S)-4-tert-butylcyclohexyl]oxy}methyl)-7-methyl-6-oxo-1,3,4,6-tetrahydro-2H-quinolizin-3-yl]ethanesulfonamide]",96%
15,"Cc1ccccc1C1CCC(OCC2C(NS(C)(=O)=O)CCc3ccc(C)c(=O)n32)CC1 (racemic) [Example 19, rac-N-[(3S,4R)-7-methyl-4-({[(1s,4S)-4-(2-methylphenyl)cyclohexyl]oxy}methyl)-6-oxo-1,3,4,6-tetrahydro-2H-quinolizin-3-yl]methanesulfonamide]",89%
16,"Cc1ccccc1C1CCC(OCC2C(NS(=O)(=O)C3CC3)CCc3ccc(C)c(=O)n32)CC1 (racemic) [Example 20, rac-N-[(3S,4R)-7-methyl-4-({[(1s,4S)-4-(2-methylphenyl)cyclohexyl]oxy}methyl)-6-oxo-1,3,4,6-tetrahydro-2H-quinolizin-3-yl]cyclopropanesulfonamide]",97%
17,"Cc1cccc(C2CCC(OCC3C(NS(C)(=O)=O)CCc4ccc(C)c(=O)n43)CC2)c1 (racemic) [Example 21, rac-N-[(3S,4R)-7-methyl-4-({[(1s,4S)-4-(3-methylphenyl)cyclohexyl]oxy}methyl)-6-oxo-1,3,4,6-tetrahydro-2H-quinolizin-3-yl]methanesulfonamide]",92%
18,"CCS(=O)(=O)NC1CCc2ccc(C)c(=O)n2C1COC1CCC(c2cccc(C)c2)CC1 (racemic) [Example 22, rac-N-[(3S,4R)-7-methyl-4-({[(1s,4S)-4-(3-methylphenyl)cyclohexyl]oxy}methyl)-6-oxo-1,3,4,6-tetrahydro-2H-quinolizin-3-yl]ethanesulfonamide]",83%
19,"CCS(=O)(=O)NC1CCc2ccc(C)c(=O)n2C1COC1CCC(c2ccccc2C)CC1 (racemic) [Example 23, rac-N-[(3S,4R)-7-methyl-4-({[(1s,4S)-4-(2-methylphenyl)cyclohexyl]oxy}methyl)-6-oxo-1,3,4,6-tetrahydro-2H-quinolizin-3-yl]ethanesulfonamide]",96%
20,"Cc1ccc2n(c1=O)C(COC1CCC(C(C)(C)C)CC1)C(NS(=O)(=O)C1CC1)CC2 (racemic) [Example 24, rac-N-[(3S,4R)-4-({[(1s,4S)-4-tert-butylcyclohexyl]oxy}methyl)-7-methyl-6-oxo-1,3,4,6-tetrahydro-2H-quinolizin-3-yl]cyclopropanesulfonamide]",86%
21,"Cc1cccc(C2CCC(OCC3C(NS(=O)(=O)C4CC4)CCc4ccc(C)c(=O)n43)CC2)c1 (racemic) [Example 25, rac-N-[(3S,4R)-7-methyl-4-({[(1s,4S)-4-(3-methylphenyl)cyclohexyl]oxy}methyl)-6-oxo-1,3,4,6-tetrahydro-2H-quinolizin-3-yl]cyclopropanesulfonamide]",92%
22,"Cc1ccc2n(c1=O)C(COC1CCC(C)CC1)C(NS(=O)(=O)N(C)C)CC2 (racemic) [Example 26, rac-N,N-dimethyl-N′-[(3S,4R)-7-methyl-4-({[(1s,4S)-4-methylcyclohexyl]oxy}methyl)-6-oxo-1,3,4,6-tetrahydro-2H-quinolizin-3-yl]sulfuric diamide]",86%
